Read-outs that look alike come from different tables or passages of the source.
Legend:
SARS-CoV-2 [1] = system: SARS-CoV-2; design: method as in ref 19 = [19]; details: in combination with far red light irradiation; cited from earlier work
[2] = system: avian H5N8 influenza virus; details: cited from earlier work
[3] = system: bovine coronavirus (BCoV) strain S379 Riems; type: cell-based, Beta-coronavirus 1; details: for EC100 (100% Viable Cells): BCoV MOI = 1, with irradiation
[4] = system: bovine coronavirus (BCoV); type: cell-based, Beta-coronavirus 1; details: with irradiation, MDBK cells
[5] = system: bovine coronavirus (BCoV); type: cell-based, Beta-coronavirus 1
MDBK cells [6] = details: for IC50: no BCoV
[7] = system: human adenovirus type 5 (HAdV5); design: method as in ref 16 = [16]; details: combined virucidal and irradiation effects; cited from earlier work
MDBK cells [8] = experiment: cells; details: Bos taurus
SARS-CoV-2 [9] = details: irradiation with a wave length of λ = 662 nm; cited from earlier work
BCoV = system: BCoV; design: method as in ref 48 = [48]; details: independently of light; cited from earlier work
vaccinia viruses = details: 30 µM of MB + PDI; not virus antigenicity; cited from earlier work
SARS-CoV-2 [10] = details: 1% MB, cited from earlier work

octakis (cholinyl) zinc phthalocyanine [Zn-PcChol8+]
infectivity of SARS-CoV-2 (SARS-CoV-2 [1]): completely destroyed the infectivity
sensitivity of the virus to PDI [2]: sensitive to PDI

Cc1cc2nc3ccc(N(C)C)cc3[s+]c2cc1N.[Cl-] [TBO, toluidine blue O]
fold higher SI of TBO than MB [3]: 1.7 fold
fold lower EC50 (fold more active) of TBO than MB ([3]; 50% BCoV inactivation, with irradiation): 3.6 fold
EC50 ([3]; BCoV MOI = 1, irradiation 54 J/cm^2 (680 nm) for MB, 99 J/cm^2 (635 nm) for TBO, MDBK cells, MTT, read-out: EC50 (50% Viable Cells)): 5 nM
EC100 (100% Viable Cells) ([3]; MDBK cells, MTT): 0.02 µM
SI (IC50/EC50) ([3]; IC50 in MDBK cells / EC50 for direct BCoV inactivation with irradiation): 170
concentration resulting in strong inactivation of BCoV ([3]; irradiation 680 nm and 54 J/cm^2 for MB, 635 nm and 99 J/cm^2 for TBO, Figure 7): ≥ 0.02 µM
fold more effective than MB, based on the active concentrations ([3]; with irradiation): 25 fold
viable cells ([3]; without irradiation, 0.25 µM, Figure 7b): 80%
decrease of the fraction of viable cells (cytotoxic) ([3]; without irradiation, concentration increased above 0.25 µM, Figure 7b): approximately 50%
concentrations up to which permissive cells were observed [4]: up to 0.01 µM
decrease in the number of viral cDNA [5]: ~ 6 log/mL
Δlog cDNA/mL vs. Virus Control ([5]; TBO 0.02 µM): 1.08 × 10^3
Δlog cDNA/mL vs. Virus Control ([5]; TBO 0.30 µM): 5.91 × 10^6
MNC (maximal nontoxic concentration) (MDBK cells [6]; 24 h incubation): 0.66 µM
IC50 (MDBK cells [6]; 24 h incubation): 970 nM
MNC (maximal nontoxic concentration) (MDBK cells [6]; 48 h incubation): 0.35 µM
IC50 (MDBK cells [6]; 48 h incubation): 520 nM
MNC (maximal nontoxic concentration) (MDBK cells [6]; 72 h incubation): 0.59 µM
IC50 (MDBK cells [6]; 72 h incubation): 850 nM
fold lower IC50 of TBO than MB (MDBK cells [6]; 72 h of incubation): 2.12 fold

octa-methylpyridyloxy-substituted Ga phthalocyanine [Ga8]
PDI potential on naked viruses, especially on HAdV5 [7]: remarkable PDI potential

CN(C)c1ccc2nc3ccc(=[N+](C)C)cc-3sc2c1 [MB, Methylene blue]
EC100 (100% Viable Cells) ([3]; MDBK cells, MTT): 0.15 µM
"dark" antiviral activity towards BCoV ([3]; without irradiation, highest tested concentration 0.3 µM, Figure 7a): not enough to achieve “dark” antiviral activity
concentrations up to which permissive cells were observed [4]: up to 0.075 µM
IC50 (MDBK cells [8]; 24 h): 2540 nM
IC50 (MDBK cells [8]; 48 h): 1280 nM
IC50 (MDBK cells [8]; 72 h): 1800 nM
IC50 (MDBK cells [8]; read-out: IC50, range over the incubation periods): 1280 to 2540 nM
protection of Vero E6 cells from infection (SARS-CoV-2 [9]): fully protected
concentration at which light-independent antiviral activity was observed (BCoV): ≥ 1 µM
effect on virus infectivity (vaccinia viruses): loss of virus infectivity
SARS-CoV-2 virus load (SARS-CoV-2 [10]; gargling or spraying in the nasal cavity, early stages of the infection): sufficient reduction of the SARS-CoV-2 virus load
adverse effects (SARS-CoV-2 [10]; local application, even in patients with co-morbidities): lack of adverse effects

tetra-methylpyridyloxy-substituted Ga phthalocyanine [Ga4]
PDI potential on naked viruses, especially on HAdV5 [7]: remarkable PDI potential
